Experimental data taken from patent publication US10370433B2, “Compositions and methods for diagnosis and treatment of cancer” (BIONTECH AG, priority 2015, dated 2019).
Positions of bridges follow the written chain, without caps; N, C: chain ends. Residues, ends and D or L forms follow the SMILES beside them.

Molecular target: T1, recombinant human Seprase (rhuSeprase) (Homo sapiens, UniProt Q12884)
T1 construct: named pCEP4-IgKappa-huSeprase-coCHO_26-760aa-H6 and used for the generation of recombinant soluble human Seprase (rhuSeprase); mouse Ig kappa-chain V-J2-C secretion signal (N, cleaved yes); made in house; host or cells: FreeStyle CHO-S cells (transient transfection; purified from supernatant by Ni-chelate and SEC)
T1 sequence (Q12884 26-760): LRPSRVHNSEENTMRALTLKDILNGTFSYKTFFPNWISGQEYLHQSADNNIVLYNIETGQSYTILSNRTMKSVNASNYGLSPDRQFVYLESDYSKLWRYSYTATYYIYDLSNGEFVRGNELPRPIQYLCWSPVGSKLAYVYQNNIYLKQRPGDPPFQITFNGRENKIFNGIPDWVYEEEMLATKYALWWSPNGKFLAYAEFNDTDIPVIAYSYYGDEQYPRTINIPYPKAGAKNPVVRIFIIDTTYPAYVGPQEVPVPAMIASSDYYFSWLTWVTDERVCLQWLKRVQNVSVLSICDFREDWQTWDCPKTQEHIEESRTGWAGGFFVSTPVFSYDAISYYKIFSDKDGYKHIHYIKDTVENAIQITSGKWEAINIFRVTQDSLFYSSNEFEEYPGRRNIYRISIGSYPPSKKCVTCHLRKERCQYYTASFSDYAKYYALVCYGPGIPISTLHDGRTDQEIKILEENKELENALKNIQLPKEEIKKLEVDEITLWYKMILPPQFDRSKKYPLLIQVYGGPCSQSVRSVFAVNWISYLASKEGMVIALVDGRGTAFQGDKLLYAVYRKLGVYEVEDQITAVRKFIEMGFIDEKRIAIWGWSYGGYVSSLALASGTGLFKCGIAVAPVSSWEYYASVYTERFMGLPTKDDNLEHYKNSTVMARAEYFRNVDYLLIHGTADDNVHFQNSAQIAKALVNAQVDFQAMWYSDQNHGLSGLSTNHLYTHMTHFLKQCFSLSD
Assay: Surface plasmon resonance (Biacore T100) on immobilized rhuSeprase
Type: binding

Question: Which results are given for CC[C@H](C)[C@@H]1NC(=O)[C@@H]2CSSC[C@H](NC(=O)[C@H](C)NC(=O)CNC(=O)[C@H](CO)NC(=O)CN)C(=O)N3CCC[C@H]3C(=O)N[C@@H](Cc3ccc(O)cc3)C(=O)N[C@@H]([C@@H](C)O)C(=O)N[C@@H](CCCNC(=N)N)C(=O)N[C@@H](Cc3c[nH]c4ccccc34)C(=O)N[C@@H](CCC(N)=O)C(=O)N3CCC[C@H]3C(=O)NCC(=O)N[C@@H](CCCNC(=N)N)C(=O)NCC(=O)N3CCC[C@H]3C(=O)N[C@@H](CO)C(=O)N[C@H]3CSSC[C@H](NC1=O)C(=O)N[C@@H](CCCNC(=N)N)C(=O)NCC(=O)N[C@@H](CC(N)=O)C(=O)NCC(=O)N[C@@H](Cc1ccc(O)cc1)C(=O)N[C@H](C(=O)NCC(=O)O)CSSC[C@H](NC(=O)[C@H](CC(=O)O)NC(=O)[C@H](CO)NC(=O)[C@H](CC(=O)O)NC(=O)[C@H](CCCNC(=N)N)NC(=O)[C@H](CCCNC(=N)N)NC3=O)C(=O)N1CCC[C@H]1C(=O)NCC(=O)N[C@@H](CCCNC(=N)N)C(=O)N2 [FA8-D05] (H-GSGACPYTRWQPGRGPSCRRDSDCPGRCICRGNGYCG-OH; disulfide 5-28, 18-30, 24-36; N-terminus and C-terminus assumed)?
Answer: kd: 0.8121 s⁻¹; kon (read-out: ka (1/Ms)): 4.21e+06 M⁻¹ s⁻¹
